The values that follow come from US6596290B2 (priority 2001, dated 2003).

One experiment has as its system S. aureus (MN8). In kind it is cell-based, Staphylococcus aureus.
For the next experiment, the system named is TSST-1. The experiment is classed as cell-based, Staphylococcus aureus.

Values joined by “and” are separate entries in the source; they are usually repeats but may differ in a detail not shown here. Equal entries are not always repeated. Where two headings read alike, the source gives them in different places.

Take `C=CC(C)(O)CCC=C(C)C` (centres unmarked) [Linalool]: in the experiment on S. aureus (MN8), the CFU/mL is reported as 2.0E + 09 CFU/mL. Moreover, the “Optical Density” value in the experiment with S. aureus (MN8) (0.01% test compound, Table 3) is recorded as 0.600. For the same compound, in the experiment on TSST-1, the “Reduction of Toxin %” value is given as 88% and the “ng TSST-1 per OD Unit” value is given as 421 ng TSST-1 per OD Unit.
Taken in the same sequence, the figures for `CC(C)=CCC/C(C)=C/CO` [Geraniol] were 3.2E + 08 CFU/mL, 0.0569, 99% and 26 ng TSST-1 per OD Unit.
As to `CC(=O)/C=C/C1=C(C)CCCC1(C)C` [Beta-ionone], in the experiment with S. aureus (MN8), the CFU/mL turned out to be 1.8E + 08 CFU/mL and the “Optical Density” value came to 0.688. Also, in the experiment on TSST-1, the “Reduction of Toxin %” value was found to be 100% and the “ng TSST-1 per OD Unit” value was “none”.
In turn, `CC1(O)CCC(C(C)(C)O)CC1` (centres unmarked) [p-menthane-1,8-diol] yielded a CFU/mL in the experiment on S. aureus (MN8) of 2.0E + 09 CFU/mL. Further, in the experiment on S. aureus (MN8) (0.7% test compound, Table 3), the “Optical Density” value was 0.620. Moreover, in the experiment on TSST-1, the “Reduction of Toxin %” value worked out at 78% and the “ng TSST-1 per OD Unit” value amounted to 792 ng TSST-1 per OD Unit.
As for `CC1CCC(C(C)C)C(O)C1` (centres unmarked) [Menthol], the “effect on the growth of S. aureus cells” value in the experiment with S. aureus (MN8) is reported as “minimal, if any, effect”. The “Optical Density” value in the experiment with S. aureus (MN8) (0.1% test compound (in methanol), S. aureus MN8, 24 h, 600 nm) was found to be 0.621. The same compound displayed a CFU/mL in the experiment on S. aureus (MN8) (24 h) of 6.3E + 08 CFU/mL. For the same compound, the “ng TSST-1 per OD Unit” value with TSST-1 (24 h) amounted to 33 ng TSST-1 per OD Unit.
Consider myreth-3-myristate [Cetiol], for which, in the experiment with S. aureus (MN8), the “CFU/mL × 10^8” value was 4.2 and 5.9 and 5.0. Further, in the experiment on TSST-1, the “ng TSST-1 per CFU” value is 371 ng TSST-1 per CFU and 196 ng TSST-1 per CFU and 200 ng TSST-1 per CFU; the “ng TSST-1 per mL” value is 1556 ng TSST-1 per mL and 1147 ng TSST-1 per mL and 989 ng TSST-1 per mL.
